ChEMBL document CHEMBL1156613, “Potent and selective pyrazole-based inhibitors of B-Raf kinase” (Bioorg Med Chem Lett, 2008)
≈ marks a conversion by molar mass, not a printed value. Calls of active or inactive are those of the source. The calls are words filed in the database; no cut-off is given here.

Legend:
[1] = target: Serine/threonine-protein kinase B-raf (Homo sapiens, UniProt P15056); assay: Inhibition of human recombinant B-Raf by fluorescence anisotropy
[2] = target: Mitogen-activated protein kinase; ERK1/ERK2 (Homo sapiens, UniProt P27361+P28482); assay: Inhibition of ERK1/2 phosphorylation in human MALME3M cells; type: cell-based
Mus musculus = assay: Inhibition of ERK phosphorylation in human LOX tumor xenografted mouse at 25 mg/kg, po after 1 hrs by Western blot method; type: functional, organism-based; design: dose 25 mg/kg
[3] = Aqueous solubility at pH 6.5 by shake-flask method; type: physicochemical; conditions: aqueous medium

Sequence of Serine/threonine-protein kinase B-raf (P15056 whole entry): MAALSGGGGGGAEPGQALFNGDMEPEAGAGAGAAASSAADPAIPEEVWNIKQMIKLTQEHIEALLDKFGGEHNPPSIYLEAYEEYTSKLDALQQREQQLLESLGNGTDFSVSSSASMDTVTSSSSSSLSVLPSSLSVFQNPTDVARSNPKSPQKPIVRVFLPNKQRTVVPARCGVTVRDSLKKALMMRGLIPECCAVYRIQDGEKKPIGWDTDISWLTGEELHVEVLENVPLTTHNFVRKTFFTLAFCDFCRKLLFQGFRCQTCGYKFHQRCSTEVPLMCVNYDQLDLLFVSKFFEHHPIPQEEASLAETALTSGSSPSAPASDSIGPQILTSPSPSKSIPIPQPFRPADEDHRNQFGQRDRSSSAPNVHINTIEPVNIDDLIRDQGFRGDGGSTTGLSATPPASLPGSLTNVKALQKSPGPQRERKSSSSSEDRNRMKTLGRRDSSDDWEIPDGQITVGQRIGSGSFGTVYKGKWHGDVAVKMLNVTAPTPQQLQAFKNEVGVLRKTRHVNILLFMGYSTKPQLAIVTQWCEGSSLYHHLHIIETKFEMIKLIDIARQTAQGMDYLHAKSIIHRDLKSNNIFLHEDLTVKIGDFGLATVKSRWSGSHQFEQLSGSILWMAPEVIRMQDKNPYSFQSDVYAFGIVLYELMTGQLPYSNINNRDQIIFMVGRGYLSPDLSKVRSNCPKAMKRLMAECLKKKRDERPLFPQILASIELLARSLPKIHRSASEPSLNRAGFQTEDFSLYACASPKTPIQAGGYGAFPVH

Row | Structure (SMILES) | IC50 [1] [nM] | IC50 [2] [nM] | Activity (Mus musculus) | solubility thermodynamic [3] [µg/mL]
1 | Cn1cc(-c2ccc3c(c2)CC/C3=N\O)c(-c2ccnc(N)c2)n1 | 2.1 | 1000 | – | –
2 | O/N=C1\CCc2cc(-c3cn(CC4CCCNC4)nc3-c3ccncc3)ccc21 (stereo unspecified) | 0.85 | 154 | – | –
3 | O/N=C1\CCc2cc(-c3cn(C4CCOCC4)nc3-c3ccncc3)ccc21 | 0.22 | 48 | – | –
4 | CN(C)CCCn1cc(-c2ccc3c(c2)CC/C3=N\O)c(-c2ccncc2)n1 | 0.47 | 122 | – | –
5 | OCCCn1cc(-c2ccc3c(c2)CC/C3=N\O)c(-c2ccncc2)n1 | 0.05 | 26 | – | –
6 | Cn1cc(-c2ccc3c(c2)C(=O)NC3)c(-c2ccncc2)n1 | 68.4 | – | – | –
7 | CNC1CCCC(n2cc(-c3ccc4c(c3)CC/C4=N\O)c(-c3ccncc3)n2)C1 (stereo unspecified) | 0.23 | 18 | – | –
8 | CN1CCC(n2cc(-c3ccc4c(c3)CC/C4=N\O)c(-c3ccncc3)n2)CC1 | 0.34 | 10 | – | –
9 | CN(C)CCn1cc(-c2ccc3c(c2)CC/C3=N\O)c(-c2ccncc2)n1 | 4.02 | 607 | – | –
10 | Cn1cc(-c2ccc3c(c2)CC/C3=N\O)c(-c2cnco2)n1 | 4.1 | 2400 | – | –
11 | Cn1cc(-c2ccc(/C(N)=N\O)cc2)c(-c2ccncc2)n1 | 18.4 | 20000 | – | –
12 | OCC(CO)n1cc(-c2ccc3c(c2)CC/C3=N\O)c(-c2ccncc2)n1 | 0.56 | 171 | – | –
13 | O/N=C1\CCc2cc(-c3cn([C@@H]4CCC[C@H](O)C4)nc3-c3ccncc3)ccc21 (relative stereo) | 0.04 | 7 | Active | 3 (≈ 7.72 µM)
14 | COCCn1cc(-c2ccc3c(c2)CC/C3=N\O)c(-c2ccncc2)n1 | 1.16 | 569 | – | –
15 | Cc1c[nH]nc1-c1ccc(-c2cn(C)nc2-c2ccncc2)cc1 | 4.4 | 18000 | – | –
16 | O/N=C1\CCc2cc(-c3cn([C@H]4CCC[C@H]4O)nc3-c3ccncc3)ccc21 (relative stereo) | 3.91 | 245 | – | –
17 | Cn1cc(-c2ccc3c(c2)CC/C3=N\O)c(-c2cccnc2)n1 | 434 | – | – | –
18 | O/N=C1\CCc2cc(-c3c[nH]nc3-c3ccncc3)ccc21 | 0.15 | 53 | – | –
19 | Cn1cc(-c2ccc3c(c2)CC/C3=N\O)c(-c2ccncn2)n1 | 3.1 | 1500 | – | –

Row | Structure (SMILES) | IC50 [1] [nM] | IC50 [2] [nM] | Activity (Mus musculus) | solubility thermodynamic [3] [µg/mL]
20 | Cn1cc(-c2ccc3c(c2)Cc2c[nH]nc2-3)c(-c2ccncc2)n1 | 1.5 | 1900 | – | –
21 | O/N=C1\CCc2cc(-c3cn(C4CCNCC4)nc3-c3ccncc3)ccc21 | 0.03 | 9 | inactive | 52 (≈ 139 µM)
22 | O/N=C1\CCc2cc(-c3cn(C4CCCC4)nc3-c3ccncc3)ccc21 | 3.46 | 57 | – | –
23 | O/N=C1\CCc2cc(-c3cn([C@H]4CCC[C@@H]4O)nc3-c3ccncc3)ccc21 (relative stereo) | 0.33 | 37 | – | –
24 | OCCn1cc(-c2ccc3c(c2)CC/C3=N\O)c(-c2ccncc2)n1 | – | – | Active | 76 (≈ 227 µM)
25 | O/N=C1\CCc2cc(-c3cn([C@@H]4CCC[C@@H](O)C4)nc3-c3ccncc3)ccc21 (relative stereo) | 0.09 | 17 | – | –
26 | Cn1cc(-c2ccc3c(c2)CCN/C3=N/O)c(-c2ccncc2)n1 | 16 | 10000 | – | –
27 | Cn1cc(-c2ccc3c(c2)CC/C3=N\O)c(-c2ccnc(O)c2)n1 | 2.9 | 800 | – | –
28 | Cn1cc(-c2ccc3c(c2)CC/C3=N\O)c(-c2ccc3c(cnn3C)c2)n1 | 970 | – | – | –
29 | OCC(O)Cn1cc(-c2ccc3c(c2)CC/C3=N\O)c(-c2ccncc2)n1 (stereo unspecified) | 0.87 | 22 | – | –
30 | NCCn1cc(-c2ccc3c(c2)CC/C3=N\O)c(-c2ccncc2)n1 | 2.4 | 119 | – | –
31 | NCCCn1cc(-c2ccc3c(c2)CC/C3=N\O)c(-c2ccncc2)n1 | 0.39 | 20 | – | –
32 | Cn1cc(-c2ccc(-c3cc[nH]n3)cc2)c(-c2ccncc2)n1 | 68.4 | – | – | –
33 | Cn1cc(-c2ccc3cn[nH]c3c2)c(-c2ccncc2)n1 | 70 | – | – | –
34 | Cn1cc(-c2ccc3c(c2)CC/C3=N\O)c(-c2ccncc2)n1 | 0.02 | 33 | – | –
35 | O/N=C1\CCc2cc(-c3cn(CC4CCNCC4)nc3-c3ccncc3)ccc21 | 1.2 | 332 | – | –
36 | Cn1cc(-c2ccc3c(c2)CN/C3=N/O)c(-c2ccncc2)n1 | < 2 | 56 | – | 590 (≈ 1930 µM)
37 | CCn1cc(-c2ccc3c(c2)CC/C3=N\O)c(-c2ccncc2)n1 | 0.57 | 18 | – | –
38 | Cn1ncc(-c2ccc3c(c2)CC/C3=N\O)c1-c1ccncc1 | 0.48 | 165 | – | –
